In patent publication US20230077362A1 (CORTEVA AGRISCIENCE LLC, priority 2019, published 2023):
Like-named read-outs stand apart in the source and are kept apart here.

Assays:
[1] = test system: Beet Armyworm (Spodoptera exigua) ("BAW"), second instar larvae; experiment: Bioassay on beet armyworm (BAW), 128-well diet tray assay; type: in vivo; settings: for pest or weed control at 50 µg/cm2: Spodoptera exigua; for BAW rating: C = not tested, D = no activity noticed
Method in brief: (§1)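 Mortality (%) is scored well by well after five to seven days at 25° C. on a 14:10 light:dark regime. The value given is the mean of eight wells.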

[2] = test system: Cabbage Looper (Trichoplusia ni) ("CL"), second instar larvae; experiment: Bioassay on cabbage looper (CL), 128-well diet tray assay; type: in vivo; settings: for CL rating: C = not tested, D = no activity noticed
Method in brief: as §1

[3] = read-out: BAW (Biological Results, rating)
[4] = Trichoplusia ni, read-out: CL (Biological Results, rating)
[5] = Trichoplusia ni, read-out: CL rating

Row | SMILES | pest or weed control at 50 µg/cm2 [1, 3] [%] | pest or weed control at 50 µg/cm2 [2, 4] [%] | pest or weed control at 50 µg/cm2 ([1]; read-out: BAW rating) [%] | pest or weed control at 50 µg/cm2 [2, 5] [%] | also measured
1 | COc1ccc(C(C)C)c(N2C(=O)CS/C2=N\C(=O)Nc2ccc(-c3ncn(-c4ccc(C(F)(F)F)cc4)n3)c(C)c2)c1 [Compound J5, (Z)-1-(3-(2-Isopropyl-5-methoxyphenyl)-4-oxothiazolidin-2-ylidene)-3-(3-methyl-4-(1-(4-(trifluoromethyl)phenyl)-1H-1,2,4-triazol-3-yl)phenyl)urea] | 50 to 100 | 50 to 100 |  |  | 
2 | Cc1ccc(Cc2cccc(F)c2)c(N2C(=O)CS/C2=N\C(=O)Nc2ccc(-c3ncn(-c4ccc(OC(F)(F)F)cc4)n3)cc2F)c1 [Compound J676, (Z)-1-(2-Fluoro-4-(1-(4-(trifluoromethoxy)phenyl)-1H-1,2,4-triazol-3-yl)phenyl)-3-(3-(2-(3-fluorobenzyl)-5-methylphenyl)-4-oxothiazolidin-2-ylidene)urea] |  |  | 50 to 100 | 50 to 100 | 
3 | Cc1ccc(OCC(F)(F)F)c(N2C(=O)CS/C2=N\C(=O)Nc2ccc(-c3ncn(-c4ccc(OC(F)(F)F)cc4)n3)cc2F)c1 [Compound J31, (Z)-1-(2-Fluoro-4-(1-(4-(trifluoromethoxy)phenyl)-1H-1,2,4-triazol-3-yl)phenyl)-3-(3-(5-methyl-2-(2,2,2-trifluoroethoxy)phenyl)-4-oxothiazolidin-2-ylidene)urea] | 50 to 100 | 50 to 100 |  |  | 
4 | CC(C)c1cc(F)c(N(C)C)cc1N1C(=O)CS/C1=N\C(=O)Nc1ccc(-c2ncn(-c3ccc(OC(F)(F)F)cc3)n2)cc1F [Compound J162, (Z)-1-(3-(5-(Dimethylamino)-4-fluoro-2-isopropylphenyl)-4-oxothiazolidin-2-ylidene)-3-(2-fluoro-4-(1-(4-(trifluoromethoxy)phenyl)-1H-1,2,4-triazol-3-yl)phenyl)urea] | 50 to 100 | 50 to 100 |  |  | 
5 | Cc1cccc(N2C(=O)CS/C2=N\C(=O)Nc2ccc(-n3cnc(-c4ccc(C(F)(F)F)cc4)n3)cc2F)c1COCC(F)(F)F [Compound J704, (Z)-1-(2-Fluoro-4-(3-(4-(trifluoromethyl)phenyl)-1H-1,2,4-triazol-1-yl)phenyl)-3-(3-(3-methyl-2-((2,2,2-trifluoroethoxy)methyl)phenyl)-4-oxothiazolidin-2-ylidene)urea] |  |  | 50 to 100 | 50 to 100 | 
6 | Cc1cc(COCC(F)(F)F)c(N2C(=O)CS/C2=N\C(=O)Nc2ccc(-c3ncn(-c4ccc(S(F)(F)(F)(F)F)cc4)n3)cc2C#N)cc1C [Compound J587, (Z)-1-(2-Cyano-4-(1-(4-(pentafluoro-λ^6-sulfaneyl)phenyl)-1H-1,2,4-triazol-3-yl)phenyl)-3-(3-(4,5-dimethyl-2-((2,2,2-trifluoroethoxy)methyl)phenyl)-4-oxothiazolidin-2-ylidene)urea] |  |  | 50 to 100 | 50 to 100 | 
7 | COc1ccc(C(C)C)c(N2C(=O)CS/C2=N\C(=O)Nc2ccc(-c3ncn(-c4ccc(C(F)(F)F)cc4)n3)cc2C)c1 [Compound J8, (Z)-1-(3-(2-Isopropyl-5-methoxyphenyl)-4-oxothiazolidin-2-ylidene)-3-(2-methyl-4-(1-(4-(trifluoromethyl)phenyl)-1H-1,2,4-triazol-3-yl)phenyl)urea] | 50 to 100 | 50 to 100 |  |  | 
8 | Cc1ccc(C(C)C)c(N2C(=O)CS/C2=N\C(=O)Nc2ccc(-c3cn(-c4ccc(C(F)(F)F)cc4)cn3)cc2C)c1 [Compound J523, (Z)-1-(3-(2-Isopropyl-5-methylphenyl)-4-oxothiazolidin-2-ylidene)-3-(2-methyl-4-(1-(4-(trifluoromethyl)phenyl)-1H-imidazol-4-yl)phenyl)urea] |  |  | 50 to 100 | 50 to 100 | 
9 | COc1ccc(OCCC(F)(F)F)c(N2C(=O)CS/C2=N\C(=O)Nc2ccc(-c3ncn(-c4ccc(OC(F)(F)F)cc4)n3)cc2)c1 [Compound J320, (Z)-1-(3-(5-Methoxy-2-(3,3,3-trifluoropropoxy)phenyl)-4-oxothiazolidin-2-ylidene)-3-(4-(1-(4-(trifluoromethoxy)phenyl)-1H-1,2,4-triazol-3-yl)phenyl)urea] | 50 to 100 | 50 to 100 |  |  | 
10 | Cc1ccc(OCCC(F)(F)F)c(N2C(=O)CS/C2=N\C(=O)Nc2ccc(-c3ncn(-c4ccc(OC(F)(F)F)cn4)n3)cc2C)c1 [Compound J255, (Z)-1-(3-(5-Methyl-2-(3,3,3-trifluoropropoxy)phenyl)-4-oxothiazolidin-2-ylidene)-3-(2-methyl-4-(1-(5-(trifluoromethoxy)pyridin-2-yl)-1H-1,2,4-triazol-3-yl)phenyl)urea] | 50 to 100 | 50 to 100 |  |  | 
11 | CN(C)c1ccc(OCCC(F)(F)F)c(N2C(=O)CS/C2=N\C(=O)Nc2ccc(-c3ncn(-c4ccc(OC(F)(F)F)cc4)n3)cc2C(F)(F)F)c1 [Compound J118, (Z)-1-(3-(5-(Dimethylamino)-2-(3,3,3-trifluoropropoxy)phenyl)-4-oxothiazolidin-2-ylidene)-3-(4-(1-(4-(trifluoromethoxy)phenyl)-1H-1,2,4-triazol-3-yl)-2-(trifluoromethyl)phenyl)urea] | 50 to 100 | 50 to 100 |  |  | 
12 | Cc1cc(C)c(C)c(N2C(=O)CS/C2=N\C(=O)Nc2ccc(-c3ncn(-c4ccc(OC(F)(F)F)cc4)n3)cc2F)c1 [Compound J797, (Z)-1-(2-Fluoro-4-(1-(4-(trifluoromethoxy)phenyl)-1H-1,2,4-triazol-3-yl)phenyl)-3-(4-oxo-3-(2,3,5-trimethylphenyl)thiazolidin-2-ylidene)urea] |  |  |  |  | BAW rating (% control or mortality class) ([1]; Table ABC, species BAW, 128-well diet tray assay, second instar larvae): A (50-100); mortality at 50 µg/cm2 ([2]; Trichoplusia ni, Table ABC, species CL, 128-well diet tray assay, second instar larvae, read-out: CL rating (% control or mortality class)): 50 to 100%
13 | Cc1ccc(C(C)C)c(N2C(=O)CS/C2=N\C(=O)Nc2ccc(-c3ncn(-c4cccc(C(F)(F)F)c4)n3)cc2F)c1 [Compound J140, (Z)-1-(2-Fluoro-4-(1-(3-(trifluoromethyl)phenyl)-1H-1,2,4-triazol-3-yl)phenyl)-3-(3-(2-isopropyl-5-methylphenyl)-4-oxothiazolidin-2-ylidene)urea] | 50 to 100 | 50 to 100 |  |  | 
14 | Cc1ccc(COCC(F)(F)F)c(N2C(=O)CS/C2=N\C(=O)Nc2ccc(-c3cn(-c4ccc(S(F)(F)(F)(F)F)cc4)cn3)cc2C)c1 [Compound J616, (Z)-1-(3-(5-Methyl-2-((2,2,2-trifluoroethoxy)methyl)phenyl)-4-oxothiazolidin-2-ylidene)-3-(2-methyl-4-(1-(4-(pentafluoro-λ^6-sulfaneyl)phenyl)-1H-imidazol-4-yl)phenyl)urea] |  |  | 50 to 100 | 50 to 100 | 
15 | Cc1ccc(C(C)C)c(N2C(=O)CS/C2=N\C(=O)Nc2ccc(-c3cn(-c4ccc(S(F)(F)(F)(F)F)cc4)cn3)cc2F)c1 [Compound J589, (Z)-1-(2-fluoro-4-(1-(4-(pentafluoro-λ^6-sulfaneyl)phenyl)-1H-imidazol-4-yl)phenyl)-3-(3-(2-isopropyl-5-methylphenyl)-4-oxothiazolidin-2-ylidene)urea] |  |  | 50 to 100 | 50 to 100 | 
16 | Cc1ccc(OCCC(F)(F)F)c(N2C(=O)CS/C2=N\C(=O)Nc2ccc(-c3ncn(-c4ccc(S(F)(F)(F)(F)F)cc4)n3)cc2F)c1 [Compound J447] |  |  | 50 to 100 | 50 to 100 | 
17 | Cc1ccc(OCCCC(F)(F)F)c(N2C(=O)CS/C2=N\C(=O)Nc2ccc(-n3cnc(-c4ccc(OC(F)(F)F)cc4)n3)cc2C)c1 [Compound J465, (Z)-1-(3-(5-Methyl-2-(4,4,4-trifluorobutoxy)phenyl)-4-oxothiazolidin-2-ylidene)-3-(2-methyl-4-(3-(4-(trifluoromethoxy)phenyl)-1H-1,2,4-triazol-1-yl)phenyl)urea] |  |  | 50 to 100 | 50 to 100 | 
18 | Cc1ccc(-n2cnc(-c3ccc(NC(=O)/N=C4\SCC(=O)N4c4cc(C)ccc4COCC(F)(F)F)c(F)c3)n2)cc1 [Compound J752] |  |  |  |  | BAW rating ([1]; Table ABC, species BAW): A (50-100); CL rating ([2]; Table ABC, species CL): A (50-100)
19 | COc1ccc(OCCC(F)(F)F)c(N2C(=O)CS/C2=N\C(=O)Nc2ccc(-c3ncn(-c4ccc(OC(F)(F)F)cc4)n3)cc2F)c1 [Compound J92, (Z)-1-(2-Fluoro-4-(1-(4-(trifluoromethoxy)phenyl)-1H-1,2,4-triazol-3-yl)phenyl)-3-(3-(5-methoxy-2-(3,3,3-trifluoropropoxy)phenyl)-4-oxothiazolidin-2-ylidene)urea] | 50 to 100 | 50 to 100 |  |  | 
20 | Cc1ccc(COCC(Cl)(Cl)Cl)c(N2C(=O)CS/C2=N\C(=O)Nc2ccc(-c3ncn(-c4ccc(S(F)(F)(F)(F)F)cc4)n3)cc2F)c1 [Compound J453] |  |  |  |  | BAW rating ([1]; Table ABC, species BAW): A (50-100); CL rating ([2]; Table ABC, species CL): A (50-100)
21 | Cc1cc(COCC(F)(F)F)c(N2C(=O)CS/C2=N\C(=O)Nc2ccc(-c3ncn(-c4ccc(OC(F)(F)F)cc4)n3)cc2C)cc1C [Compound J460] |  |  |  |  | BAW rating ([1]; Table ABC, species BAW): A (50-100); CL rating ([2]; Table ABC, species CL): A (50-100)
22 | COCOc1cc(-c2ncn(-c3ccc(OC(F)(F)F)cc3)n2)ccc1NC(=O)/N=C1\SCC(=O)N1c1cc(C)ccc1OCC(F)(F)F [Compound J171, (Z)-1-(2-(Methoxymethoxy)-4-(1-(4-(trifluoromethoxy)phenyl)-1H-1,2,4-triazol-3-yl)phenyl)-3-(3-(5-methyl-2-(2,2,2-trifluoroethoxy)phenyl)-4-oxothiazolidin-2-ylidene)urea] | 50 to 100 | 50 to 100 |  |  | 
